What all share (experiment): kinase selectivity panel
What all share (type): biochemical

The target in test [1] is T1, CHK1 (Homo sapiens, UniProt O14757).
T1 construct: purchased Eurofins Pharma Discovery Services (KinaseProfiler; Cerep BioPrint panel)
T1 sequence (O14757 1-476): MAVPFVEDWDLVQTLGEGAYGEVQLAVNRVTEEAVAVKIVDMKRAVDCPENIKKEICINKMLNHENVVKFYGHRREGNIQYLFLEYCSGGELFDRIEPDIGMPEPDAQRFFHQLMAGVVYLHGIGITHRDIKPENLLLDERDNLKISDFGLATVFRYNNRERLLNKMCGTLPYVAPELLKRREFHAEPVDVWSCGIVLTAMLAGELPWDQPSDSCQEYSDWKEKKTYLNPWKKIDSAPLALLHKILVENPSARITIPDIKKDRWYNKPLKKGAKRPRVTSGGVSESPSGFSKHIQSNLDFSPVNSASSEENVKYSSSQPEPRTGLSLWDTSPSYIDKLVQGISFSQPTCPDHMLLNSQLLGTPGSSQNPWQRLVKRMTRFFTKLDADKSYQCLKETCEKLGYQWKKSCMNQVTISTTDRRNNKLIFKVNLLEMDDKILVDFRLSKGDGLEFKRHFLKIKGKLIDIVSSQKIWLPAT
To be noted: read-out: percentage of control activity (POC), CHK1. As to the method: (§1) Kinase selectivity was evaluated at Eurofins Pharma Discovery Services using a selection of 125 representative kinases tested at a concentration of 10 μM in duplicate (S3 Table). IC50 values for selected activities were further characterized at 9 duplicate concentrations. DNA-PK activity was determined at the SelectScreen® Biochemical kinase Profiling Service of Thermo Fisher Scientific.

The target of test [2] is T2, SAPK2a (Homo sapiens, UniProt Q16539).
T2 construct: purchased Eurofins Pharma Discovery Services (KinaseProfiler; Cerep BioPrint panel)
T2 sequence (Q16539 whole entry): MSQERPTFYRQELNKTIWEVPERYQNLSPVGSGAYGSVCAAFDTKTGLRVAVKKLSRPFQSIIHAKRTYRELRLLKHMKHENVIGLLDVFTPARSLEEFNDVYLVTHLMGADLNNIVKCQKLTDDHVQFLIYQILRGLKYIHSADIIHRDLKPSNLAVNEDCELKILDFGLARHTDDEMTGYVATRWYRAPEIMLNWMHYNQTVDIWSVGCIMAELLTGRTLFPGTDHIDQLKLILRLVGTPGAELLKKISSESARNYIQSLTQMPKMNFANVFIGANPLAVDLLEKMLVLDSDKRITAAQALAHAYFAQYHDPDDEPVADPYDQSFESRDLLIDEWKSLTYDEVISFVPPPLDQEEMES
Conditions: for inhibition at 10 µM: read-out: inhibition of p38α(SAPK2α); for remaining activity at 10 µM: read-out: percentage of control activity (POC), SAPK2a. Here is the method: as §1

Test [3] addresses T3, cKit (Homo sapiens, UniProt P10721).
T3 construct: purchased Eurofins Pharma Discovery Services (KinaseProfiler; Cerep BioPrint panel)
To be noted: read-out: percentage of control activity (POC), cKit. As to the method:
as §1

The target of test [4] is T4, PTK5 (Homo sapiens, UniProt P42685).
T4 construct: purchased Eurofins Pharma Discovery Services (KinaseProfiler; Cerep BioPrint panel)
T4 sequence (P42685 whole entry): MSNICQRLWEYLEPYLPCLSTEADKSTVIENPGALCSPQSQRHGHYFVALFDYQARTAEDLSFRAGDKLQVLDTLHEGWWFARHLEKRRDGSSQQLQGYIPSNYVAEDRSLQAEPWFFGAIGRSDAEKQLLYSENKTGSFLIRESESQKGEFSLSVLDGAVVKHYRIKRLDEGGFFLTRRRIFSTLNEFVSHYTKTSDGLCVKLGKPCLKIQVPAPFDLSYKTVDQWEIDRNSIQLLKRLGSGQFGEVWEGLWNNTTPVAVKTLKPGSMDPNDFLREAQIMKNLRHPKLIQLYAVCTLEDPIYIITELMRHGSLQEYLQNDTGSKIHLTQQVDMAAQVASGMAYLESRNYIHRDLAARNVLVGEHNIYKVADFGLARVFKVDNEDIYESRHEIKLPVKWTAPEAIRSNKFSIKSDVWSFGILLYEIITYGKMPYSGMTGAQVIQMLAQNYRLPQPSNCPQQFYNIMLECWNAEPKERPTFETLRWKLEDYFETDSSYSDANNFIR
Conditions: for remaining activity at 10 µM: read-out: percentage of control activity (POC), PTK5. Here is the method:
as §1

Test [5] addresses T5, MSK2 (Homo sapiens, UniProt O75676).
T5 construct: purchased Eurofins Pharma Discovery Services (KinaseProfiler; Cerep BioPrint panel)
Conditions: read-out: percentage of control activity (POC), MSK2. Here is the method:
as §1

Test [6] addresses T6, PDGFRβ (Homo sapiens, UniProt P09619).
T6 construct: purchased Eurofins Pharma Discovery Services (KinaseProfiler; Cerep BioPrint panel)
Conditions: read-out: percentage of control activity (POC), PDGFRβ. As to the method:
as §1

Test [7] addresses T7, Rse (Homo sapiens, UniProt Q06418).
T7 construct: purchased Eurofins Pharma Discovery Services (KinaseProfiler; Cerep BioPrint panel)
T7 sequence (Q06418 41-890): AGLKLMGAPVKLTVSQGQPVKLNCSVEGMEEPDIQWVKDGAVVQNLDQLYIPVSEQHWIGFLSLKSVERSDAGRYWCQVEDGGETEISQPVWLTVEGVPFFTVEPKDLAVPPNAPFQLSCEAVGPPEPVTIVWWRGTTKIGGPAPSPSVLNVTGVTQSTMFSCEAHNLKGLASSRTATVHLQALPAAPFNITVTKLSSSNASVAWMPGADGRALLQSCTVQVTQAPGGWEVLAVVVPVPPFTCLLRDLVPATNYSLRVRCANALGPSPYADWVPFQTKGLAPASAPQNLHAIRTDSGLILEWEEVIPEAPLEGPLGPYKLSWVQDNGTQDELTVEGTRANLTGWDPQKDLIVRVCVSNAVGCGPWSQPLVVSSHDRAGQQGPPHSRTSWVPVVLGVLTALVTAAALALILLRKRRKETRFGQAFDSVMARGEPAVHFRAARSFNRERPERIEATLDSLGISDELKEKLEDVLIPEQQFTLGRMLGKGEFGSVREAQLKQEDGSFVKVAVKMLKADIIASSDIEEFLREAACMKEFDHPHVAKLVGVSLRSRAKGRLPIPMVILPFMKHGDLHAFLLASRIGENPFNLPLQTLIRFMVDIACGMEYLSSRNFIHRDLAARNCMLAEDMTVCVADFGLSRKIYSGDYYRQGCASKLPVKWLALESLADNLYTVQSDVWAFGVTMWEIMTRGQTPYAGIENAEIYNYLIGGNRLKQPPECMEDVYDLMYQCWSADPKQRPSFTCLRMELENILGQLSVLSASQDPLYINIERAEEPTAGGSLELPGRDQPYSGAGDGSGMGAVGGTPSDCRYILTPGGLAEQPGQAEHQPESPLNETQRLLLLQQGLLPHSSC
Conditions: read-out: percentage of control activity (POC), Rse. As to the method:
as §1

By inhibition is commonly meant how much of the control response was suppressed.

T6 sequence (P09619 33-1106): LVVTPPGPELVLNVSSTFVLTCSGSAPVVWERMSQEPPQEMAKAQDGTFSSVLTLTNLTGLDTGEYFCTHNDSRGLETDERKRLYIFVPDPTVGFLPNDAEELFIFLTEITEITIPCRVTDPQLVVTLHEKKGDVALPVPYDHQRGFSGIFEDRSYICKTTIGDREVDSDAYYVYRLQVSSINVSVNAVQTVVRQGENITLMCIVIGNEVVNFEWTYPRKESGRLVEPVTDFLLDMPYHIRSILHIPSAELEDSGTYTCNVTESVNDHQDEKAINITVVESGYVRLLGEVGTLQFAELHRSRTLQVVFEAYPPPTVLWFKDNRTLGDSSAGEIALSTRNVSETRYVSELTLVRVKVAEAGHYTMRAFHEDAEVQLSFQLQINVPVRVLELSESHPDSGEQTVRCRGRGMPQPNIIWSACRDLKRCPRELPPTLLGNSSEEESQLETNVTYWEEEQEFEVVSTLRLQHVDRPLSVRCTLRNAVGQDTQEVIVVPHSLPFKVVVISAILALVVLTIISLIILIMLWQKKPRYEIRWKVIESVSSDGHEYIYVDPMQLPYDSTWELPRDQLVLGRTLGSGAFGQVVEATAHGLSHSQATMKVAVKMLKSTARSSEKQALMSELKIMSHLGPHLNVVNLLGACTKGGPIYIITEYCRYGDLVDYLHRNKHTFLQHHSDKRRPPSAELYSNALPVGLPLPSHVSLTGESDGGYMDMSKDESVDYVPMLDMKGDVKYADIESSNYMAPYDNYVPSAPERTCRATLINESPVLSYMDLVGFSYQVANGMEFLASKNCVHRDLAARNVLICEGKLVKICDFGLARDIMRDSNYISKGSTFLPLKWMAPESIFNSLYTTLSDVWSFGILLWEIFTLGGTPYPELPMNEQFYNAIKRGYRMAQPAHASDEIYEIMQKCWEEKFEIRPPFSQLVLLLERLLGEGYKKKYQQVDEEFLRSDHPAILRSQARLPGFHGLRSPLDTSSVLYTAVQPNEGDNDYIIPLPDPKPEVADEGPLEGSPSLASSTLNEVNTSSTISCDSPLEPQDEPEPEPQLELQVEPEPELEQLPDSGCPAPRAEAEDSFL
T5 sequence (O75676 whole entry): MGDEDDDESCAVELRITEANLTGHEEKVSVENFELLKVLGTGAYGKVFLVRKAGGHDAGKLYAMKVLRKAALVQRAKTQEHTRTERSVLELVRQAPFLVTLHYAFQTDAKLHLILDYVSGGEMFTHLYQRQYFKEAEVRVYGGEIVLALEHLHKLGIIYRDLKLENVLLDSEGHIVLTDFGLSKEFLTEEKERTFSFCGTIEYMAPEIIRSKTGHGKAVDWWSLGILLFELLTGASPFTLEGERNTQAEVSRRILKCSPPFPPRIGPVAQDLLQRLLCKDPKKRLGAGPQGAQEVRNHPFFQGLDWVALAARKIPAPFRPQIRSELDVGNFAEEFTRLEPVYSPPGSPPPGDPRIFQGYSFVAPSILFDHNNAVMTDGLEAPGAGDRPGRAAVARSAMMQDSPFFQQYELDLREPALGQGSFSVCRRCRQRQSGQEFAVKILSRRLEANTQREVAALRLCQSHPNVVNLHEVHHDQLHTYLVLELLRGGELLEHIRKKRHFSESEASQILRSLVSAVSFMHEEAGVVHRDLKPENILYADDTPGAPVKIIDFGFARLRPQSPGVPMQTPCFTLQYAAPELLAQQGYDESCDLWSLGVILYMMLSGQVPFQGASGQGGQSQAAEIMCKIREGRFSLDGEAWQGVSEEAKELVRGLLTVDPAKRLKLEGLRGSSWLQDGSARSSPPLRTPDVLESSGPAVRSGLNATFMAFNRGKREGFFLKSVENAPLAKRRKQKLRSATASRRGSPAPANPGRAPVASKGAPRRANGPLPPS
T3 sequence (P10721 26-976): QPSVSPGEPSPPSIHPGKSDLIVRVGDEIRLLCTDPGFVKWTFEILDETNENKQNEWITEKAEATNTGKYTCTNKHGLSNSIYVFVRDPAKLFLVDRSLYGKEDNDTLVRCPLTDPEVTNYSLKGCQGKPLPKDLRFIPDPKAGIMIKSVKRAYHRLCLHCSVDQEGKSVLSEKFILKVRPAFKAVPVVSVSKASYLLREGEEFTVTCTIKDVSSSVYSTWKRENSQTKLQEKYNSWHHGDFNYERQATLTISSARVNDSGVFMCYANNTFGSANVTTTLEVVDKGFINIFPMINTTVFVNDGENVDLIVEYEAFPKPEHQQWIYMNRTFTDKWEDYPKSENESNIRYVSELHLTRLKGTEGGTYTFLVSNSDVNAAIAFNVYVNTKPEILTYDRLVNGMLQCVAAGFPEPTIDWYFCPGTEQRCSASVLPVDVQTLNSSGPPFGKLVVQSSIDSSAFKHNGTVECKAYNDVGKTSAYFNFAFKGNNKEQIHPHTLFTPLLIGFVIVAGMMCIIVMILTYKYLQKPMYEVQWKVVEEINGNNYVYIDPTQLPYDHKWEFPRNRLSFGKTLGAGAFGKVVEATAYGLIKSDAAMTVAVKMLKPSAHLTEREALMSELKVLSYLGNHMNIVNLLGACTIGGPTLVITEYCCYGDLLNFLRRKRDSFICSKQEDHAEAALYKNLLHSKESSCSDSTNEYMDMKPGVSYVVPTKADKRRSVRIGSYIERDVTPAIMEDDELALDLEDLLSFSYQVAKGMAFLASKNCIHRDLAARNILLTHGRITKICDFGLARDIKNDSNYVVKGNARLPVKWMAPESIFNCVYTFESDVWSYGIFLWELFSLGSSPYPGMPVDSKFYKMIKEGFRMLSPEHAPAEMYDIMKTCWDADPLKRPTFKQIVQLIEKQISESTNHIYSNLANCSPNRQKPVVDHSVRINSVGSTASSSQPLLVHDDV

Take `CC(C)(C)N1CCC(c2cc(-c3ccc(F)cc3Cl)c3cc[n+]([O-])c(-c4c(Cl)cccc4Cl)c3n2)CC1` [compound 2]: the remaining activity at 10 µM is 103% in test [1]; -1% in test [2]; 96% in test [3]; 97% in test [4]; 90% in test [5]; 70% in test [6]. In test [7], the remaining activity at 10 µM was determined as 109%. For the same compound, the inhibition at 10 µM in test [2] is roughly 100%.
Turning to `Cc1ccc(C(=O)NCC2CC2)cc1-c1ccc2c(c1)NC(=O)C21CCCC1` [compound 3], the remaining activity at 10 µM in test [1] is 100%; in test [2] it was -2%; in test [3], 88%; in test [4], 56%; in test [5], 91%; in test [6], 61%. In test [7], the remaining activity at 10 µM was determined as 99%. For the same compound, the inhibition at 10 µM in test [2] was roughly 100%.
With `Cn1cc(-c2cccc(-c3nc(C(=O)NC4C5CC6CC4CC(O)(C6)C5)c(N)nc3N)c2)cn1` (stereo not drawn) [compound 4], the remaining activity at 10 µM in test [1] is 94%; in test [2], 91%; in test [3], 102%; in test [4] it was 54%; in test [5], 96%; in test [6] it was 63%. The remaining activity at 10 µM in test [7] is 92%.
As for `CS(=O)(=O)N1CCN(c2ccc(Nc3ncc(C(N)=O)c(NC4CC4)n3)cc2)CC1` [compound 5], the remaining activity at 10 µM in test [1] was found to be 1%; in test [2], 89%; in test [3] it was 1%; in test [4] it was 31%; in test [5], 21%; in test [6], 16%. Besides, in test [7], the remaining activity at 10 µM came out at 33%.
In the case of `COc1c(NC(=O)c2ccc(C)c(-c3nnc4c(NCC(C)(C)C)nccn34)c2)cc(C(C)(C)C)cc1NS(C)(=O)=O` [compound 7, reference compound], the remaining activity at 10 µM is 103% in test [1]; -1% in test [2]; 92% in test [3]; 4% in test [4]; 109% in test [5]; 82% in test [6]. In test [7], the remaining activity at 10 µM was 107%. For the same compound, the inhibition at 10 µM in test [2] is roughly 100%; in test [4], 96%.
